For 17 molecules, GI50 and TGI results are on record in PubChem BioAssay (NCI).

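Values below derive from 48-hour exposures of cells grown in 96-well plates, with endpoints linearly interpolated between the two concentrations bracketing the appropriate inhibition level. At the GI50, growth is halved. TGI: total growth inhibition.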

Among the test systems are OVCAR-3 ovarian; DU-145 prostate; UACC-62 melanoma; HOP-92 NSCLC; NCI-H460 lung; U251 CNS; OVCAR-4 ovarian; MALME-3M melanoma; UO-31 renal; MDA-MB-231 breast.
Holding throughout (experiment): DTP human tumour cell line panel, 48 h

For orientation: GI50 means the concentration giving 50% growth inhibition. One may read the TGI as the concentration at which net growth stops. As to `CCN(CC)c1ccc2nc3ccc(N=Nc4ccc(O)cc4)cc3[n+](-c3ccccc3)c2c1`, the GI50 in the test on OVCAR-3 ovarian is 0.359 µM; in the test with DU-145 prostate, 4.68 µM; in the test with UACC-62 melanoma it was 4.14 µM; in the test with HOP-92 NSCLC, more than 100 µM; in the test on NCI-H460 lung it was 3.41 µM; in the test on U251 CNS, 7.81 µM. For the same molecule, the GI50 with OVCAR-4 ovarian was 1.39 µM. Besides, the TGI in the test on OVCAR-3 ovarian is 4.02 µM; in the test on DU-145 prostate it was 16.7 µM; in the test on UACC-62 melanoma, 23.3 µM; in the test on HOP-92 NSCLC, more than 100 µM; in the test on NCI-H460 lung, more than 100 µM; in the test with U251 CNS, more than 100 µM. This molecule also yielded a TGI with OVCAR-4 ovarian of 2.77 µM.
With `CC1=C(C#N)C(/C=C(\Cl)c2ccc(F)cc2)C(C#N)=C(C)N1`, the GI50 was more than 100 µM in the test on OVCAR-3 ovarian; more than 100 µM in the test on MALME-3M melanoma; more than 100 µM in the test with UO-31 renal; 94.9 µM in the test on MDA-MB-231 breast; more than 100 µM with DU-145 prostate; 81 µM in the test on UACC-62 melanoma. Also, the GI50 with NCI-H460 lung, in the test on U251 CNS and with OVCAR-4 ovarian was more than 100 µM in each case. The TGI in the test with OVCAR-3 ovarian, with MALME-3M melanoma, in the test with UO-31 renal, in the test with MDA-MB-231 breast, in the test on DU-145 prostate and in the test with UACC-62 melanoma was more than 100 µM each time. The TGI with NCI-H460 lung, in the test with U251 CNS and in the test on OVCAR-4 ovarian was more than 100 µM each time.
For the molecule `COc1ccc(-c2nc(N)c(C#N)c3c2CCOc2c-3ccc3ccccc23)cc1`, the GI50 was 15.2 µM with MALME-3M melanoma; 49.9 µM in the test on UO-31 renal; 10.6 µM in the test on MDA-MB-231 breast; 11.8 µM in the test on HOP-92 NSCLC; 16.3 µM in the test on NCI-H460 lung; 14 µM in the test on U251 CNS. Besides, the GI50 in the test on OVCAR-4 ovarian is 1.43 µM. Further, the TGI in the test on MALME-3M melanoma is 50.1 µM; with UO-31 renal, more than 100 µM; in the test on MDA-MB-231 breast it was 33.8 µM; in the test with HOP-92 NSCLC, 37.9 µM; in the test on NCI-H460 lung it was more than 100 µM; with U251 CNS, 34.4 µM. The TGI in the test with OVCAR-4 ovarian was found to be 9.38 µM.
In the case of `CCCCN1C(=O)/C(=c2\sc3n(c2=O)C2C(NN=3)N(CC)C(=O)N2CC)c2ccccc21` (stereo not given), the GI50 with MALME-3M melanoma was 0.639 µM; in the test on MDA-MB-231 breast it was 1.38 µM; with UACC-62 melanoma it was 0.502 µM; in the test with HOP-92 NSCLC, 1.07 µM; with U251 CNS, 0.773 µM; with OVCAR-4 ovarian, 0.909 µM. Besides, the concentration for total growth inhibition (TGI) in the test with MALME-3M melanoma came out at 3.27 µM; in the test with MDA-MB-231 breast it was 3.74 µM; in the test with UACC-62 melanoma, 3.55 µM; in the test with HOP-92 NSCLC, 4.58 µM; in the test with U251 CNS it was 3.39 µM; in the test with OVCAR-4 ovarian, 4.83 µM.
For the molecule `COc1ccc2c(c1)CCc1c(CO)c(COC(=O)NC(C)C)n(C)c1-2`, the TGI amounted to 54.9 µM in the test with OVCAR-3 ovarian; 16.2 µM in the test on MALME-3M melanoma; 19.6 µM in the test on UO-31 renal; 22.7 µM with UACC-62 melanoma; 22.5 µM with HOP-92 NSCLC; 26.5 µM with NCI-H460 lung. Also, the concentration for total growth inhibition (TGI) in the test on U251 CNS was determined as 35.8 µM; in the test with OVCAR-4 ovarian, 53.5 µM.
With `C=Cc1c(C)c2cc3[nH]c(cc4nc(cc5nc(cc1[nH]2)C(C)=C5CCC(=O)N(CC)CC)C(CCC(=O)N(CC)CC)=C4C)c(C)c3C=C`, the TGI in the test with OVCAR-3 ovarian, in the test with MALME-3M melanoma, in the test on UO-31 renal, in the test with UACC-62 melanoma, in the test on HOP-92 NSCLC and with NCI-H460 lung was more than 100 µM each time. For the same molecule, the TGI in the test on U251 CNS and in the test on OVCAR-4 ovarian was more than 100 µM each time.
For `COc1cccc2nc3c(C(=O)NCCN(C)C)cccc3nc12`, the TGI was 73.9 µM in the test with OVCAR-3 ovarian; 21.9 µM with MALME-3M melanoma; 66.8 µM with UO-31 renal; 27 µM with UACC-62 melanoma; 28.8 µM in the test with HOP-92 NSCLC; 21 µM in the test on NCI-H460 lung. In addition, the figures for the TGI in the test on U251 CNS and with OVCAR-4 ovarian were 59.1 µM and 26.7 µM, respectively.
As for `CCC(C)(O)c1cn(-c2ccc(S(=O)(=O)O)cc2)nn1` (stereo not given), the TGI in the test on OVCAR-3 ovarian, in the test with MALME-3M melanoma, in the test on UO-31 renal, in the test with UACC-62 melanoma, with HOP-92 NSCLC and in the test on NCI-H460 lung was more than 100 µM each time. For the same molecule, the TGI in the test with U251 CNS and with OVCAR-4 ovarian was more than 100 µM in each case.
Regarding `COc1cc2c3c(c1OC)C(=O)C=C3N(S(=O)(=O)c1ccc(C)cc1)CC2`, the TGI in the test with OVCAR-3 ovarian, in the test with MALME-3M melanoma, with UO-31 renal, in the test on UACC-62 melanoma, in the test on HOP-92 NSCLC and in the test with NCI-H460 lung was more than 100 µM throughout. For the same molecule, the TGI with U251 CNS and with OVCAR-4 ovarian was more than 100 µM each time.
As to `O=C(NC(=O)c1cn(CCN2CCN(C(=O)NCCCCCCNC(=O)N3CCN(CCn4cc(C(=O)NC(=O)OCc5ccccc5)c(=O)[nH]c4=O)CC3)CC2)c(=O)[nH]c1=O)OCc1ccccc1`, the TGI in the test with OVCAR-3 ovarian, in the test on MALME-3M melanoma, in the test with UO-31 renal, in the test on UACC-62 melanoma, in the test with HOP-92 NSCLC and in the test on NCI-H460 lung was more than 100 µM in each case. Also, the concentration for total growth inhibition (TGI) in the test with U251 CNS and in the test on OVCAR-4 ovarian was more than 100 µM in each case.
Turning to `COC(=O)CC(=O)NCC1=CCC(=O)CC1`, the total growth inhibition concentration (TGI) in the test with OVCAR-3 ovarian, in the test on MALME-3M melanoma, in the test with UO-31 renal, in the test with UACC-62 melanoma, with HOP-92 NSCLC and in the test with NCI-H460 lung was more than 100 µM in each case. The total growth inhibition concentration (TGI) in the test with U251 CNS and with OVCAR-4 ovarian was more than 100 µM in each case.
Take `CCN(CC)c1ccc(/C=N/NC(=O)CSc2nc3ccccc3c(=O)n2Cc2ccc(S(N)(=O)=O)cc2)c(O)c1`: the GI50 in the test with OVCAR-3 ovarian is 0.287 µM; in the test on MALME-3M melanoma, 1.09 µM; in the test with UO-31 renal, 2.89 µM; in the test with MDA-MB-231 breast, 0.643 µM; in the test with DU-145 prostate, 0.944 µM; with UACC-62 melanoma, 0.886 µM. Also, the GI50 was 0.425 µM in the test on NCI-H460 lung, 0.51 µM in the test on U251 CNS and 0.311 µM with OVCAR-4 ovarian. Moreover, the concentration for total growth inhibition (TGI) was more than 100 µM in the test on OVCAR-3 ovarian; more than 100 µM in the test on MALME-3M melanoma; more than 100 µM in the test with UO-31 renal; more than 100 µM in the test with MDA-MB-231 breast; more than 100 µM with DU-145 prostate; 5.44 µM with UACC-62 melanoma. Also, the TGI with NCI-H460 lung, in the test on U251 CNS and in the test with OVCAR-4 ovarian was more than 100 µM throughout.
For `Cc1ccc(O)c(NC2=C(Cl)C(=O)N(Cc3ccccc3)C2=O)c1`, the GI50 was 14.9 µM with OVCAR-3 ovarian; 23 µM in the test with MALME-3M melanoma; 16 µM in the test on UO-31 renal; 12.6 µM in the test on MDA-MB-231 breast; 27.8 µM in the test with DU-145 prostate; 17 µM in the test with UACC-62 melanoma. Besides, the values for the GI50 in the test with NCI-H460 lung, in the test with U251 CNS and in the test with OVCAR-4 ovarian were 28.6 µM, 19.8 µM and 31.7 µM, respectively. The TGI worked out at 32.9 µM in the test on OVCAR-3 ovarian; 67.5 µM with MALME-3M melanoma; 41 µM in the test on UO-31 renal; 32.3 µM in the test with MDA-MB-231 breast; 95.9 µM with DU-145 prostate; 36.8 µM with UACC-62 melanoma. The values for the TGI in the test with NCI-H460 lung, in the test on U251 CNS and in the test with OVCAR-4 ovarian were more than 100 µM, 43.3 µM and more than 100 µM, respectively.
As to `CCCCCCCCCCOC(=O)c1cc[n+](C)cc1`, the TGI in the test with OVCAR-3 ovarian came to 28.9 µM; in the test on MALME-3M melanoma it was 30.7 µM; in the test with UO-31 renal, 30.3 µM; with UACC-62 melanoma, 34 µM; in the test with HOP-92 NSCLC it was 29.2 µM; in the test on NCI-H460 lung it was 38.8 µM. For the same molecule, the figures for the TGI in the test on U251 CNS and with OVCAR-4 ovarian were 29.1 µM and 33 µM, respectively.
`COc1cc(NC(C)CCCNC(C)C)c2ncccc2c1OC` (stereo not given): the GI50 in the test on OVCAR-3 ovarian is 6.47 µM; in the test on MALME-3M melanoma it was 42.3 µM; in the test with UO-31 renal, 5.29 µM; with MDA-MB-231 breast, more than 100 µM; in the test on DU-145 prostate, more than 100 µM; in the test with UACC-62 melanoma it was more than 100 µM. In addition, the GI50 in the test on NCI-H460 lung is 34.1 µM; in the test with U251 CNS, more than 100 µM; in the test with OVCAR-4 ovarian, 4.2 µM. The TGI in the test on OVCAR-3 ovarian is 51 µM; with MALME-3M melanoma it was more than 100 µM; with UO-31 renal it was more than 100 µM; in the test with MDA-MB-231 breast it was more than 100 µM; with DU-145 prostate it was more than 100 µM; in the test on UACC-62 melanoma, more than 100 µM. The TGI is more than 100 µM with NCI-H460 lung, more than 100 µM in the test with U251 CNS and 53.3 µM in the test with OVCAR-4 ovarian.
As to `CCC[CH2][Sn]([CH2]CCC)([CH2]CCC)[O]C(=O)C(OC)c1ccccc1` (stereo not given), the GI50 was 0.0845 µM with OVCAR-3 ovarian; 0.112 µM with MALME-3M melanoma; 0.113 µM with UO-31 renal; 0.0913 µM with UACC-62 melanoma; 0.0274 µM with HOP-92 NSCLC; 0.0835 µM in the test with NCI-H460 lung. Also, the GI50 in the test with U251 CNS was 0.106 µM; in the test on OVCAR-4 ovarian, 0.0604 µM. Further, the TGI in the test with OVCAR-3 ovarian is 0.213 µM; with MALME-3M melanoma, 0.234 µM; in the test on UO-31 renal, 0.234 µM; in the test on UACC-62 melanoma, 0.215 µM; in the test on HOP-92 NSCLC, 0.175 µM; in the test on NCI-H460 lung, 0.217 µM. Besides, the TGI in the test with U251 CNS came to 0.225 µM; in the test with OVCAR-4 ovarian, 0.189 µM.
On to `NC(=S)N/N=C1/CN(c2ccc(Cl)c(Cl)c2)CC(=O)C1c1nc2ccccc2s1` (stereo not given), for which the TGI in the test with OVCAR-3 ovarian, with MALME-3M melanoma, in the test with UO-31 renal, in the test with UACC-62 melanoma, in the test on HOP-92 NSCLC and in the test with NCI-H460 lung was more than 100 µM in each case. Also, the TGI in the test on U251 CNS and in the test with OVCAR-4 ovarian was more than 100 µM throughout.
